{
  "source": "EPA's ToxRefDB 2",
  "key": {"[1]": {"system": "rat", "conditions": "Subchronic oral toxicity in rodents, sprague dawley, Feed, dose end: 90 day, group: systemic"}, "[2]": {"system": "rat", "conditions": "Multigenerational reproductive toxicity study, sprague dawley, Oral, Feed, dose end: 2 generation; for LOAEL: systemic / organ weight / brain / nos"}, "[3]": {"system": "mouse", "conditions": "Carcinogenicity, cd1, Oral, Feed, dose end: 81 week, group: systemic"}, "[4]": {"system": "rat", "conditions": "Prenatal developmental toxicity study, sprague dawley, Oral, Gavage/Intubation, dose end: 15 GD"}, "[5]": {"system": "dog", "conditions": "Chronic toxicity, beagle, Oral, Capsule, dose end: 12 month, group: systemic"}, "[6]": {"system": "rat", "conditions": "Subchronic oral toxicity in rodents, sprague dawley, Feed, dose end: 90 day, group: systemic", "remark": "listed apart in the source"}, "[7]": {"system": "mouse", "conditions": "Subchronic oral toxicity in rodents, other, Feed, dose end: 90 day, group: systemic"}, "[8]": {"system": "rat", "conditions": "Combined chronic toxicity/carcinogenicity, sprague dawley, Oral, [Not Specified], dose end: 2 year, group: systemic"}, "[9]": {"system": "rat", "conditions": "Subchronic oral toxicity in rodents, sprague dawley, Feed, dose end: 93 day, group: systemic"}, "[10]": {"system": "rat", "conditions": "Subchronic oral toxicity in rodents, sprague dawley, Feed, dose end: 90 day, group: systemic, systemic / in life observation / body weight / body weight + systemic / in life observation / body weight / body weight gain + systemic / in…"}, "[11]": {"conditions": "systemic / organ weight / liver / relative to body weight + systemic / pathology microscopic / liver / cytoplasmic alteration + systemic / …"}, "[12]": {"conditions": "group: offspring, systemic / organ weight / brain / nos + systemic / in life observation / body weight / offspring (pup) weight + systemic / organ weight / …"}, "[13]": {"conditions": "systemic / in life observation / body weight / body weight + systemic / in life observation / body weight / body weight gain + systemic / in…"}, "[14]": {"conditions": "group: developmental, developmental / developmental malformation / bone / incomplete ossification + systemic / in life observation / body weight / fetal weight"}, "[15]": {"conditions": "group: maternal, systemic / in life observation / body weight / body weight gain + systemic / in life observation / food consumption / food consumption"}, "[16]": {"conditions": "systemic / clinical chemistry / alkaline phosphatase (alp/alk) / alkaline phosphatase (alp/alk) + systemic / clinical chemistry / …"}, "[17]": {"conditions": "systemic / clinical chemistry / alkaline phosphatase (alp/alk) / alkaline phosphatase (alp/alk) + systemic / in life observation / clinical …"}, "[18]": {"conditions": "systemic / organ weight / liver / absolute + systemic / organ weight / liver / relative to body weight + systemic / organ weight / liver / …"}, "[19]": {"conditions": "systemic / pathology gross / liver / [other] + systemic / pathology microscopic / thyroid gland / colloid content"}, "[20]": {"conditions": "systemic / organ weight / liver / relative to brain weight + systemic / pathology gross / liver / [other] + systemic / pathology microscopic…"}, "[21]": {"conditions": "systemic / pathology microscopic / spleen / pigmentation"}, "[22]": {"conditions": "systemic / clinical chemistry / cholesterol / cholesterol + systemic / organ weight / liver / absolute + systemic / organ weight / liver / …"}, "[23]": {"conditions": "systemic / pathology gross / liver / enlarged"}},
  "data": [
    {"smiles": "CSC1=N[C@@](C)(c2ccccc2)C(=O)N1Nc1ccccc1", "note": "[Fenamidone]", "values": [
      {"measurement": "LEL", "setting": "[1]; systemic / clinical chemistry / aspartate aminotransferase (ast/sgot) / aspartate aminotransferase (ast/sgot)", "value": 10.4, "unit": "mg/kg/day"},
      {"measurement": "LOAEL", "setting": "[1]; systemic / organ weight / liver / relative to body weight + systemic / pathology microscopic / liver / cytoplasmic alteration", "value": 68.3, "unit": "mg/kg/day"},
      {"measurement": "NEL", "setting": "[1]; [11]", "value": 4.05, "unit": "mg/kg/day"},
      {"measurement": "NOAEL", "setting": "[1]; [11]", "value": 10.4, "unit": "mg/kg/day"},
      {"measurement": "LOAEL", "setting": "[2]; group: offspring", "value": 89.2, "unit": "mg/kg/day"},
      {"measurement": "LEL", "setting": "[2]; group: offspring, systemic / organ weight / brain / nos + systemic / in life observation / body weight / offspring (pup) weight", "value": 89.2, "unit": "mg/kg/day"},
      {"measurement": "NEL", "setting": "[2]; [12]", "value": 5.45, "unit": "mg/kg/day"},
      {"measurement": "NOAEL", "setting": "[2]; [12]", "value": 5.45, "unit": "mg/kg/day"},
      {"measurement": "LEL", "setting": "[2]; group: parental, systemic / in life observation / food consumption / food consumption", "value": 63.8, "unit": "mg/kg/day"},
      {"measurement": "NEL", "setting": "[2]; group: parental, systemic / in life observation / food consumption / food consumption + systemic / in life observation / body weight / body weight + systemic…", "value": 3.9, "unit": "mg/kg/day"},
      {"measurement": "LOAEL", "setting": "[2]; group: parental", "value": 89.2, "unit": "mg/kg/day"},
      {"measurement": "NOAEL", "setting": "[2]; group: parental, systemic / organ weight / brain / nos + systemic / in life observation / body weight / body weight + systemic / organ weight / liver / …", "value": 5.45, "unit": "mg/kg/day"},
      {"measurement": "LOAEL", "setting": "[3]; [13]", "value": 526, "unit": "mg/kg/day"},
      {"measurement": "NEL", "setting": "[3]; [13]", "value": 9.5, "unit": "mg/kg/day"},
      {"measurement": "NOAEL", "setting": "[3]; [13]", "value": 47.5, "unit": "mg/kg/day"},
      {"measurement": "LEL", "setting": "[3]; systemic / organ weight / liver / nos", "value": 47.5, "unit": "mg/kg/day"},
      {"measurement": "LEL", "setting": "[4]; [14]", "value": 1000, "unit": "mg/kg/day"},
      {"measurement": "LOAEL", "setting": "[4]; [14]", "value": 1000, "unit": "mg/kg/day"},
      {"measurement": "NEL", "setting": "[4]; [14]", "value": 150, "unit": "mg/kg/day"},
      {"measurement": "NOAEL", "setting": "[4]; [14]", "value": 150, "unit": "mg/kg/day"},
      {"measurement": "LEL", "setting": "[4]; [15]", "value": 1000, "unit": "mg/kg/day"},
      {"measurement": "LOAEL", "setting": "[4]; [15]", "value": 1000, "unit": "mg/kg/day"},
      {"measurement": "NEL", "setting": "[4]; [15]", "value": 150, "unit": "mg/kg/day"},
      {"measurement": "NOAEL", "setting": "[4]; [15]", "value": 150, "unit": "mg/kg/day"},
      {"measurement": "LEL", "setting": "[5]; [16]", "value": 1000, "unit": "mg/kg/day"},
      {"measurement": "LOAEL", "setting": "[5]; [16]", "value": 1000, "unit": "mg/kg/day"},
      {"measurement": "NEL", "setting": "[5]; [17]", "value": 100, "unit": "mg/kg/day"},
      {"measurement": "NOAEL", "setting": "[5]; [17]", "value": 100, "unit": "mg/kg/day"},
      {"measurement": "LOAEL", "setting": "[6]; [18]", "value": 32.9, "unit": "mg/kg/day"},
      {"measurement": "NOAEL", "setting": "[6]; [18]", "value": 6.42, "unit": "mg/kg/day"},
      {"measurement": "LEL", "setting": "[6]; [19]", "value": 6.42, "unit": "mg/kg/day"},
      {"measurement": "NEL", "setting": "[6]; [19]", "value": "< 6.42", "unit": "mg/kg/day"},
      {"measurement": "LOAEL", "setting": "[7]; [20]", "value": 220, "unit": "mg/kg/day"},
      {"measurement": "NOAEL", "setting": "[7]; [20]", "value": 44.5, "unit": "mg/kg/day"},
      {"measurement": "LEL", "setting": "[7]; [21]", "value": 11.3, "unit": "mg/kg/day"},
      {"measurement": "NEL", "setting": "[7]; [21]", "value": "< 11.3", "unit": "mg/kg/day"},
      {"measurement": "NEL", "setting": "[8]; systemic / organ weight / uterus / absolute + systemic / organ weight / uterus / relative to body weight", "value": 335, "unit": "mg/kg/day"},
      {"measurement": "LOAEL", "setting": "[8]; systemic / pathology microscopic / thyroid gland / hyperplasia", "value": 7.07, "unit": "mg/kg/day"},
      {"measurement": "NOAEL", "setting": "[8]; systemic / pathology microscopic / thyroid gland / hyperplasia + systemic / clinical chemistry / alanine aminotransferase (alt/sgpt) / …", "value": 2.83, "unit": "mg/kg/day"},
      {"measurement": "LOAEL", "setting": "[9]; [22]", "value": 93.3, "unit": "mg/kg/day"},
      {"measurement": "NOAEL", "setting": "[9]; [22]", "value": 9.4, "unit": "mg/kg/day"},
      {"measurement": "LEL", "setting": "[9]; [23]", "value": 9.4, "unit": "mg/kg/day"},
      {"measurement": "NEL", "setting": "[9]; [23]", "value": "< 9.4", "unit": "mg/kg/day"},
      {"measurement": "LEL", "setting": "[10]", "value": 305, "unit": "mg/kg/day"},
      {"measurement": "LOAEL", "setting": "[10]", "value": 305, "unit": "mg/kg/day"},
      {"measurement": "NEL", "setting": "[10]", "value": 29.7, "unit": "mg/kg/day"},
      {"measurement": "NOAEL", "setting": "[10]", "value": 29.7, "unit": "mg/kg/day"}
    ]}
  ]
}
